Patent publication US7776557B2, “Method for monitoring tocolytic treatment” (Diagnostic Technologies Ltd., priority 2006, dated 2010)

Tested on: PP13
Test: PP13 level in maternal venous serum of pregnant women under tocolytic treatment, solid-phase sandwich ELISA
Assay type: in vivo, human
Conditions: Example V: repeated administrations, compared with normal
Experimental: In all experiments, PP13 was measured (blinded to pregnancy outcome) in maternal venous serum by solid-phase sandwich ELISA assay. PP13 level was calibrated according to standard curves prepared from calibrated standards of recombinant PP13. Concentrations are given in pg PP13/ml serum.
This clinical study was approved by the medical center internal review ethical committee, and all women enrolled in the study provided informed consent to allow the use of a small volume of their blood to determine the level of PP13.

COC(=O)C1=C(C)NC(C)=C(C(=O)OC)C1c1ccccc1[N+](=O)[O-] [nifedipine]
area of elevated PP13 level above normal: 5.8 times
